Experimental data published in patent US12023397B2, “Scalp protection composition” (PATECH FINE CHEMICALS CO., LTD., priority 2021, dated 2024).

How the values were obtained:
[1] = Hydrolysis resistance (variation in acid value in alkaline aqueous solution, pH 13); format: physicochemical; details: 10 g sample + 20 g NaOH aqueous solution pH 13, 40±1° C.
Procedure: 10 g of the carboxylate compound of formula (I-1) prepared in Synthesis Example 1 was mixed with 20 g of an alkaline aqueous solution with a pH value of 13 (which contained sodium hydroxide and water), and then subjected to a reaction at 40±1° C. for 4 hours. Next, the variation in acid value (mg KOH/g) was measured at the 0.75th, 2nd, 3rd, and 4th hours after starting the reaction.
The carboxylate compound of formula (I-2) prepared in Synthesis Example 2, the carboxylate compound of formula (I-3) prepared in Synthesis Example 3, and the test samples of Comparative Examples 1 to 2 were subjected to the same reaction and measurement as described above.
The smaller the variation in acid value, the better the hydrolysis resistance to strong bases is.

[2] = Spreadability (spreading rate on quantitative filter paper); format: physicochemical; details: 50 μL on quantitative filter paper NO. 5C, spreading area after 5 minutes divided by time
Procedure: 50 μL of the carboxylate compound of formula (I-1) prepared in Synthesis Example 1 was dropped on the center of a quantitative filter paper (NO. 5C), and after 5 minutes, the spreading area of the carboxylate compound of formula (I-1) on the quantitative filter paper was measured. The spreading rate (mm^2/min) was calculated by dividing the spreading area by the spreading time (i.e., 5 minutes).
The carboxylate compound of formula (I-2) prepared in Synthesis Example 2, the carboxylate compound of formula (I-3) prepared in Synthesis Example 3, and the test samples of Comparative Examples 1 to 3 were subjected to the same measurement as described above.
The higher the spreading rate, the better the spreadability is.

skin of a test subject = assay: Moisture retention (skin moisture content after application); format: in vivo; details: 20° C.±3° C., relative humidity 30%±5%
Procedure: 0.1 g of the scalp protection composition of Example 1 was applied to the skin of a test subject. At the 1st, 2nd, and 3rd hours after start of application of the scalp protection composition of Example 1, the skin moisture content (%) of the test subject was measured by using a skin moisture tester (Manufacturer: Cortex Technology; Model no.: DermaLab® Combo) under a temperature of 20° C.±3° C. and a relative humidity of 30%±5%.
The test samples of Comparative Examples 1 and 3 were subjected to the same measurement as described above.
The higher the skin moisture content, the better the moisture retention is.

## CCCCCCCCCCC(CCCCCCCC)COC(=O)CCCCCCCCCCCCCCC(C)C (stereo not shown) [Comparative Example 1, 2-octyldodecyl isostearate]
[1]; 0.75th hour
  Variation in acid value: 0.21 mg KOH/g
[1]; 2nd hour
  Variation in acid value: 0.26 mg KOH/g
[1]; 3rd hour
  Variation in acid value: 0.28 mg KOH/g
[1]; 4th hour
  Variation in acid value: 0.32 mg KOH/g
[2]
  Spreading rate: 150 mm^2/min
Skin of a test subject; 1st hour after application of 0.1 g to skin
  Skin moisture content: 28.0%
Skin of a test subject; 2nd hour after application of 0.1 g to skin
  Skin moisture content: 22.7%
Skin of a test subject; 3rd hour after application of 0.1 g to skin
  Skin moisture content: 19.3%

## CCCCCCCCCCC(CCCCCCCC)COC(=O)C(CC)CCCC (stereo not shown) [Synthesis Example 1, 2-octyldodecyl 2-ethylhexanoate]
[1]; 0.75th hour
  Variation in acid value: <0.1 mg KOH/g
[1]; 2nd hour
  Variation in acid value: <0.1 mg KOH/g
[1]; 3rd hour
  Variation in acid value: 0.12 mg KOH/g
[1]; 4th hour
  Variation in acid value: 0.16 mg KOH/g
[2]
  Spreading rate: 202 mm^2/min
